Experiment: Testing of lysozyme amount for efficacy (method not described)
Details: 0.08 g lysozyme per kg of composition

lysozyme
lowest amount exhibiting some efficacy: 80 ppm
